Assay results published in ChEMBL document CHEMBL1201862, “PubChem BioAssay data set” (2004).
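In this assay, cells in 96-well plates receive the compound at five concentrations for 48 hours. Endpoints are linearly interpolated between the surrounding concentrations. Abbreviation: GI50, concentration required for 50% inhibition of growth.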 Activity calls are given as the source filed them. No stated cut-off is given here; in the data, active = GI50 up to about 1.1 µM and inactive = higher.

Key:
Experiment in all cases: NCI anticancer screen, dose series, 48 h
OVCAR-3 = system: OVCAR-3
SN12C = system: SN12C
HCC 2998 = system: HCC 2998
OVCAR-5 = system: OVCAR-5
SK-MEL-28 = system: SK-MEL-28
NCI-H23 = system: NCI-H23
A498 = system: A498
SW-620 = system: SW-620
CAKI-1 = system: CAKI-1
MDA-MB-231 = system: MDA-MB-231
RXF 393 = system: RXF 393
K562 = system: K562
UACC-257 = system: UACC-257
MCF7 = system: MCF7
Hs-578T = system: Hs-578T
SF-268 = system: SF-268
MDA-MB-435 = system: MDA-MB-435
HOP-92 = system: HOP-92
NCI-H226 = system: NCI-H226
NCI-H460 = system: NCI-H460
SF-295 = system: SF-295
RPMI-8226 = system: RPMI-8226
A549 = system: A549
HOP-62 = system: HOP-62
SNB-19 = system: SNB-19
786-0 = system: 786-0
SK-MEL-5 = system: SK-MEL-5
CCRF-CEM = system: CCRF-CEM
UO-31 = system: UO-31
HCT-116 = system: HCT-116
U-251 = system: U-251
UACC-62 = system: UACC-62
PC-3 = system: PC-3
HCT-15 = system: HCT-15
T47D = system: T47D
M14 = system: M14
HT-29 = system: HT-29
IGROV-1 = system: IGROV-1
Malme-3M = system: Malme-3M
OVCAR-4 = system: OVCAR-4
DU-145 = system: DU-145
OVCAR-8 = system: OVCAR-8
KM12 = system: KM12
NCI/ADR-RES = system: NCI/ADR-RES
BT-549 = system: BT-549
MOLT-4 = system: MOLT-4
NCI-H522 = system: NCI-H522
SK-OV-3 = system: SK-OV-3
SNB-75 = system: SNB-75
SF-539 = system: SF-539
COLO 205 = system: COLO 205
EKVX = system: EKVX
ACHN = system: ACHN
MDA-N = system: MDA-N

COC(=O)C(C)Sc1nc2cc(Cl)ccc2s1 (centres undefined)
GI50 (OVCAR-3): > 100 µM (inactive)
GI50 (SN12C): > 100 µM (inactive)
GI50 (HCC 2998): > 100 µM (inactive)
GI50 (OVCAR-5): > 100 µM (inactive)
GI50 (SK-MEL-28): > 100 µM (inactive)
GI50 (NCI-H23): > 100 µM (inactive)
GI50 (A498): > 100 µM (inactive)
GI50 (SW-620): > 100 µM (inactive)
GI50 (CAKI-1): > 100 µM (inactive)
GI50 (MDA-MB-231): > 100 µM (inactive)
GI50 (RXF 393): > 100 µM (inactive)
GI50 (K562): 78.9 µM (inactive)
GI50 (UACC-257): > 100 µM (inactive)
GI50 (MCF7): > 100 µM (inactive)
GI50 (Hs-578T): > 100 µM (inactive)
GI50 (SF-268): > 100 µM (inactive)
GI50 (MDA-MB-435): > 100 µM (inactive)
GI50 (HOP-92): > 100 µM (inactive)
GI50 (NCI-H226): > 100 µM (inactive)
GI50 (NCI-H460): > 100 µM (inactive)
GI50 (SF-295): > 100 µM (inactive)
GI50 (RPMI-8226): > 100 µM (inactive)
GI50 (A549): > 100 µM (inactive)
GI50 (HOP-62): > 100 µM (inactive)
GI50 (SNB-19): > 100 µM (inactive)
GI50 (786-0): > 100 µM (inactive)
GI50 (SK-MEL-5): > 100 µM (inactive)
GI50 (CCRF-CEM): 78.5 µM (inactive)
GI50 (UO-31): > 100 µM (inactive)
GI50 (HCT-116): > 100 µM (inactive)
GI50 (U-251): > 100 µM (inactive)
GI50 (UACC-62): > 100 µM (inactive)
GI50 (PC-3): > 100 µM (inactive)
GI50 (HCT-15): > 100 µM
GI50 (T47D): > 100 µM (inactive)
GI50 (M14): > 100 µM (inactive)
GI50 (HT-29): > 100 µM (inactive)
GI50 (IGROV-1): > 100 µM (inactive)
GI50 (Malme-3M): > 100 µM (inactive)
GI50 (OVCAR-4): > 100 µM (inactive)
GI50 (DU-145): > 100 µM (inactive)
GI50 (OVCAR-8): > 100 µM (inactive)
GI50 (KM12): > 100 µM (inactive)
GI50 (NCI/ADR-RES): > 100 µM (inactive)
GI50 (BT-549): > 100 µM (inactive)
GI50 (MOLT-4): > 100 µM (inactive)
GI50 (NCI-H522): > 100 µM (inactive)
GI50 (SK-OV-3): > 100 µM (inactive)
GI50 (SNB-75): > 100 µM (inactive)
GI50 (SF-539): > 100 µM (inactive)
GI50 (COLO 205): > 100 µM (inactive)
GI50 (EKVX): > 100 µM (inactive)
GI50 (ACHN): > 100 µM (inactive)
GI50 (MDA-N): > 100 µM (inactive)
